In the supplement of paper PMC10307832:

Experiments:
Assay in all cases: relative viability (nuclei count vs DMSO), 5 days (fraction); higher = more cells survive
[1] = compound: C[C@@H](N)c1ccc(C(=O)Nc2ccnc3[nH]ccc23)cc1 + C[C@@H](Oc1cc(-c2cnn(C3CCNCC3)c2)cnc1N)c1c(Cl)ccc(F)c1Cl [Crizotinib] (partner 1 µM)
Outline: (§1)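 Relative viability was taken as the ratio of nuclei in treated wells to nuclei in vehicle wells. Lung cancer cell lines in 1536-well plates received compounds by pin tool one day after seeding, either one drug alone or a fixed anchor-drug dose plus five library-drug doses (not always all listed) in √10 steps. Nuclei were counted on 4× images after 5 days of treatment, and values are medians of duplicate plates.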

[2] = compound: C[C@@H](N)c1ccc(C(=O)Nc2ccnc3[nH]ccc23)cc1 + CS(=O)(=O)CCNCc1ccc(-c2ccc3ncnc(Nc4ccc(OCc5cccc(F)c5)c(Cl)c4)c3c2)o1 [Lapatinib] (partner 2 µM)
Outline: as §1

Tanzisertib + Dasatinib = compound: O[C@H]1CC[C@H](Nc2ncc3nc(Nc4c(F)cc(F)cc4F)n([C@H]4CCOC4)c3n2)CC1 [Tanzisertib] + Cc1nc(Nc2ncc(C(=O)Nc3c(C)cccc3Cl)s2)cc(N2CCN(CCO)CC2)n1 [Dasatinib] (partner 0.075 µM)
Outline: as §1

Row | Cell Line | relative viability ([1]; first compound 0.04 µM) | relative viability ([1]; first compound 0.1265 µM) | relative viability ([1]; first compound 0.4 µM) | relative viability ([1]; first compound 1.265 µM) | relative viability ([1]; first compound 4 µM) | relative viability ([2]; first compound 0.04 µM) | relative viability ([2]; first compound 0.1265 µM) | relative viability ([2]; first compound 0.4 µM) | relative viability ([2]; first compound 1.265 µM) | relative viability ([2]; first compound 4 µM) | relative viability (Tanzisertib + Dasatinib; first compound 0.08 µM) | relative viability (Tanzisertib + Dasatinib; first compound 0.253 µM) | relative viability (Tanzisertib + Dasatinib; first compound 0.8 µM) | relative viability (Tanzisertib + Dasatinib; first compound 2.53 µM) | relative viability (Tanzisertib + Dasatinib; first compound 8 µM)
1 | NCI-H520 | 0.824 | 0.852 | 0.801 | 1.05 | 0.804 | 1.08 | 0.953 | 0.949 | 0.742 | 1.03 | 0.233 | 0.207 | 0.232 | 0.192 | 0.23
2 | NCI-H1755 | 0.808 | 0.822 | 0.813 | 0.795 | 0.608 | 0.874 | 1 | 1.05 | 0.705 | 0.685 | 0.408 | 0.46 | 0.488 | 0.464 | 0.333
3 | NCI-H1993 | 0.867 | 0.743 | – | 0.877 | 0.878 | 0.791 | 0.858 | – | 0.776 | 0.87 | 0.631 | 0.656 | 0.709 | 0.526 | 0.479
4 | NCI-H23 | 0.589 | 0.571 | 0.619 | – | 0.511 | 0.945 | 1.27 | 1.18 | – | 0.924 | 0.918 | 0.814 | 0.726 | 0.694 | 0.51
5 | SW 900 | – | – | – | – | – | – | – | – | – | – | 0.692 | 0.574 | 0.585 | 0.621 | 0.496
6 | NCI-H1437 | 0.915 | 0.851 | 0.943 | 1.01 | 0.792 | 0.842 | 0.782 | 0.825 | 0.772 | 0.737 | 0.527 | 0.465 | 0.393 | 0.365 | 0.439
7 | SK-MES-1 | 1.01 | 0.973 | 0.94 | 0.798 | 0.757 | 0.518 | 0.459 | 0.428 | 0.423 | 0.444 | 0.39 | 0.35 | 0.337 | 0.32 | 0.212
8 | NCI-H2405 | 0.689 | 0.904 | 0.868 | 0.68 | 0.387 | – | 1.18 | 1.05 | 0.487 | 0.351 | 0.228 | 0.225 | 0.195 | 0.227 | 0.188
9 | NCI-H2023 | 0.738 | 0.596 | 0.733 | 0.741 | 0.544 | 0.844 | 0.737 | 1.15 | 0.0713 | 0.99 | 0.677 | 0.616 | 0.536 | 0.606 | 0.497
10 | NCI-H838 | 0.835 | 0.778 | 0.638 | 0.431 | 0.316 | 0.683 | 0.922 | 0.708 | 0.445 | 0.427 | 0.355 | 0.324 | 0.3 | 0.328 | 0.31
11 | NCI-H1299 | 0.905 | 0.911 | 0.845 | 0.845 | 0.713 | 0.908 | 0.93 | 0.91 | 0.837 | 0.737 | – | – | – | – | –
12 | NCI-H1563 | 0.981 | 0.794 | 0.753 | 0.883 | 0.934 | 0.805 | 0.945 | 0.854 | 0.446 | 1.05 | 0.435 | 0.479 | 0.451 | 0.471 | 0.436
13 | NCI-H661 | 0.906 | 0.929 | 1.18 | 1.02 | 0.89 | 0.503 | 0.587 | 0.607 | 0.401 | 0.449 | 1.01 | 0.867 | 0.971 | 0.785 | 0.868
14 | NCI-H1734 | 0.669 | 0.719 | 0.653 | – | 0.575 | 1.02 | 1.15 | 1.01 | – | 1.12 | 0.47 | 0.449 | 0.459 | 0.473 | 0.444
15 | NCI-H1650 | 1.04 | 1.12 | 1.04 | 0.911 | 0.763 | 0.701 | 0.63 | 0.772 | 0.155 | 0.834 | 0.319 | 0.305 | 0.273 | 0.283 | 0.28
16 | NCI-H596 | 1.04 | 0.899 | 0.934 | 0.809 | 0.93 | 1.29 | 1.08 | 1.03 | 0.955 | 1.07 | 0.673 | 0.614 | 0.541 | 0.53 | 0.459
17 | Calu-6 | 0.761 | 0.76 | 0.741 | 0.682 | 0.489 | 1.09 | 1.08 | 1.1 | 0.902 | 0.832 | – | – | – | – | –
18 | NCI-H1395 | – | – | – | – | – | 0.935 | 1.2 | 0.954 | – | 0.941 | 0.439 | 0.428 | 0.406 | 0.437 | 0.375
19 | NCI-H1703 | 0.565 | 0.611 | 0.641 | 0.577 | 0.71 | 1.24 | 0.982 | 0.85 | 0.847 | 0.541 | – | – | – | – | –
20 | EBC-1 | 0.216 | 0.184 | 0.189 | 0.141 | 0.145 | 0.265 | 0.239 | 0.219 | 0.179 | 0.171 | – | – | – | – | –
21 | NCI-H2342 | – | – | – | – | – | – | – | – | – | – | 0.32 | 0.311 | 0.308 | 0.283 | 0.32
22 | ChaGo-K-1 | 1.07 | 1.17 | 1.1 | – | 0.846 | – | – | – | – | – | 0.647 | 0.606 | 0.605 | 0.533 | 0.59
23 | HCC-44 | 0.82 | 0.776 | 0.86 | 0.995 | 0.652 | 1.09 | 1.02 | 1.04 | 1.18 | 0.916 | – | – | – | – | –
24 | NCI-H522 | – | – | – | – | – | – | – | – | – | – | 0.937 | 0.974 | 0.845 | 0.855 | 0.884
25 | A549 | 0.833 | 0.793 | 0.734 | 0.504 | 0.268 | 1.1 | 0.895 | 1.06 | 0.924 | 0.53 | – | – | – | – | –
26 | NCI-H441 | 0.807 | 0.764 | 0.749 | 0.948 | 0.565 | – | – | – | – | – | 0.625 | 0.499 | 0.605 | 0.479 | 0.521
27 | LCLC-103H | 1.19 | 1.02 | 1.13 | 1.01 | 0.903 | – | – | – | – | – | 0.496 | 0.466 | 0.427 | 0.402 | 0.468
